Assay in all cases: Hepatic RNA-Seq differential gene expression (fold change, P1(t), ED50, BMD, BMDL)
Common to all, as to format: in vivo, mouse

One data set concerns Cyp39a1. As to conditions: C57BL/6, mouse, liver, oral; male mice, TCDD every 4 d for 28 d. On the procedure:
(§1) Frozen ileal epithelium scrapings and liver samples were homogenized in TRIzol (Ambion, Waltham, MA) using a Mixer Mill 300 tissue homogenizer (Retsch, Germany) and total RNA was isolated as previously described. RNA was quantified using a Nano-drop spectrophotometer (Thermo Scientific, Wilmington, DE) at 260 nm, and purity was assessed using the A260/A280 ratio and the Caliper LabChip GX (Perkin Elmer, Waltham, MA).
(§2) Dose-dependent gene expression was examined using RNA-Seq performed at the MSU Research Technology Support Facility (RTSF) Genomics Core (rtsf.natsci.msu.edu/genomics). Ileal libraries from three independent biological replicates (n = 3) were prepared using the Ovation Mouse RNA-Seq System 1–16 sample preparation kit (NuGen, San Carlos, CA), with an additional DNase step. Libraries were quantified and sequenced as previously described, using a read depth of ~30 M per sample[33], [67]. Quality was determined using FASTQC v0.11.3 and adaptor sequences were removed using Trimmomatic v0.33. Reads were mapped to the mouse reference genome (GRCm38 release 81) using Bowtie2 v2.2.6 and TopHat2 v2.1.0. Alignments were converted to SAM format using SAMTools v1.2.0. For TCDD-mediated differential gene expression, fold changes were calculated relative to vehicle controls. Hepatic RNA-Seq analysis was previously published. Genes were considered differentially expressed if |fold change| ≥ 1.5 and statistical P1(t) value ≥ 0.8 at one or more doses. RNA-Seq datasets for the ileal epithelium and liver were deposited in the Gene Expression Omnibus (GEO; accession number GSE89430 and GSE87519, respectively). The RNA-Seq results (fold changes, P1(t) values) for each gene discussed in the manuscript have been compiled in Supplementary Table S1. […] Estimation of benchmark dose (BMD) and BMD lower confidence limit (BMDL) was performed using BMDExpress[69] as previously described, and has been included in Supplementary Table S1.

The next data set relates to Slc6a6. As to conditions: C57BL/6, mouse, liver, oral; male mice, TCDD every 4 d for 28 d. How it is done:
as §1, §2

The subject of a further data set is Abcc4. As to conditions: C57BL/6, mouse, liver, oral; male mice, 30 µg/kg TCDD every 4 d for 28 d. How it is done:
as §1, §2

Molecules are shown by their SMILES.

What is called fold induction is the signal under treatment as a multiple of the control signal. Low values mean little rise in signal, high ones a large rise in signal.

As to `Clc1cc2c(cc1Cl)Oc1cc(Cl)c(Cl)cc1O2` [TCDD, 2,3,7,8-tetrachlorodibenzo-p-dioxin], the fold induction at 28 d in the data set on Cyp39a1 stood at 2.1; with Slc6a6, 1.8; with Abcc4, 58.1.

The record behind these values is publication PMC5517430, “2,3,7,8-Tetrachlorodibenzo-p-dioxin (TCDD)-elicited effects on bile acid homeostasis: Alterations in biosynthesis, enterohepatic circulation, and microbial metabolism” (Scientific Reports, 2017).
